Assay: The compound was tested for its inhibitory activity against bacterial neuraminidase
Design: species or system Clostridium perfringens

With CC(=O)NC1C(O)CC(C(=O)O)([C@@H](O)C2C(O)C(CO)OC(OC(=O)c3ccccc3)C2O)OC1C(O)C(O)CO (stereo not given in full) as the compound, how does the Ki read?
The Ki was 110 µM.

For CCCCCCCC(O)[C@]1(C(=O)O)C[C@@H](O)[C@@H](NC(C)=O)C(C(O)C(O)CO)O1 (stereo not given in full), which Ki is on record?
The Ki was 16 µM.

With CC(=O)N[C@H]1C(C(O)C(O)CO)O[C@](C(=O)O)(C(C)(C)O)C[C@H]1O (stereo not given in full) as the compound, how does the Ki read?
Its Ki is 29 µM.

Which Ki does the source give for COC1OC(CO)C(O)C([C@@H](O)C2(C(=O)O)CC(O)C(NC(C)=O)C(C(O)C(O)CO)O2)C1O (stereo not given in full) here?
The Ki was over 1000 µM.

For CC(=O)NC1C(O)CC(C(=O)O)([C@H](O)C2C(O)C(CO)OC(OC(=O)c3ccccc3)C2O)OC1C(O)C(O)CO (stereo not given in full), which Ki is on record?
The Ki was 229 µM.

From ChEMBL document CHEMBL1133357, “Inhibition of neuraminidase with neuraminic acid C-glycosides” (Bioorg Med Chem Lett, 2000)
